This passage reports emission maximum results from the Deep4Chem optical property database.

SMILES strings stand for the structures.

The data set in a line: solvent given as SMILES.

Under “in ClCCl”, `CC(C)c1cccc(C(C)C)c1N1C(=O)c2cccc3c(Oc4ccc(C(C)(C)C)cc4)ccc(c23)C1=O` came in with an emission maximum of 434 nm.
On to `CC(=O)c1ccc(-c2nc3ccc(N(C)C)c(Br)c3s2)cc1`, for which the emission maximum is given as 424 nm (in C1CCCCC1); 568 nm (in CC#N); 580.16 nm (in CC(C)O); 622 nm (in CO); 563.56 nm (in CS(C)=O); 505 nm (in ClC(Cl)Cl). The same compound gave an emission maximum (in c1ccccc1) of 472.87 nm.
The compound `Brc1ccc(/C=C/c2cnc3ccccc3n2)cc1` had an emission maximum (in ClCCl) of 455 nm.
For the compound `COC(=O)c1cc(=O)n(C)c2cc(-c3cccc(OC)c3)sc12`, the emission maximum worked out at 463 nm (in CC#N) and 464 nm (in ClCCl).
Under “in ClC(Cl)Cl”, `CC1=C(/C=C/c2ccccc2)C(C)=[N+]2C1=C(c1ccccc1)c1c(C)c(/C=C/c3ccccc3)c(C)n1[B-]2(F)F` returned an emission maximum of 633 nm.
`F[B-]1(F)n2c(c3c(c2-c2ccccc2)C2C=CC3CC2)C(c2ccccc2)=C2C3=C(C(c4ccccc4)=[N+]21)C1C=CC3CC1` (centres undefined) came in with an emission maximum (in ClCCl) of 588 nm.
Regarding `Cc1cc(C)c(B(c2ccccc2N(c2ccccc2)c2ccccc2)c2c(C)cc(C)cc2C)c(C)c1`, the emission maximum by setting is: (in CC(C)=O) 532.95 nm; (in Cc1ccccc1) 498 nm; (in ClCCl) 518.5 nm.
`CC1(C)c2ccccc2N(c2ccc(-c3nc(-c4ccccc4)cc(-c4ccccc4)n3)cc2)c2ccccc21` showed an emission maximum (in Cc1ccccc1) of 454.83 nm.
For the setting “in ClCCl”, `CC(C)[Si](C#Cc1ccc(C#Cc2c3cc4ccccc4cc3c(C#C[Si](C(C)C)(C(C)C)C(C)C)c3cc4ccccc4cc23)cc1)(C(C)C)C(C)C` came in with an emission maximum of 668 nm.
As for `Nc1n[n+]([O-])c2ccccc2[n+]1[O-]`, the emission maximum runs as follows: (in CC#N) 505 nm; (in O) 545 nm.
On to `O=C1c2ccccc2-c2c(-c3ccccc3O)[nH]c(=O)n21`, for which the emission maximum (in CC#N) is reported as 480 nm, the emission maximum (in CO) amounted to 498 nm and the emission maximum (in ClCCl) is 477 nm.
In the case of `Cc1cccc(C)c1Nc1ccc(/C=C/c2ccccc2)cc1`, the emission maximum by setting is: (in CC#N) 424 nm; (in CCCCCC) 375 nm.
In the case of `Cc1ccc(/C=C/c2ccccc2-[n+]2noc([O-])c2C)cc1`, the emission maximum is, setting by setting: (in C1CCCCC1) 348 nm; (in CC#N) 450 nm.
Take `c1ccc(N2c3ccc4ccccc4c3-c3c4ccccc4nc[n+]3[B-]2(c2ccccc2)c2ccccc2)cc1`: the emission maximum reads like this: (in C1CCC2CCCCC2C1) 642 nm; (in C1CCCCC1) 640 nm; (in C1CCOC1) 665 nm; (in CC#N) 677 nm; (in CC(C)=O) 675 nm; (in CCCCCC) 641 nm. Besides, the emission maximum (in CCOC(C)=O) was 665 nm, the emission maximum (in CN(C)C=O) was found to be 680 nm, the emission maximum (in Cc1ccccc1) came out at 654 nm and the emission maximum (in ClC(Cl)Cl) came out at 676 nm.
For the setting “in C1COCCO1”, `N#Cc1ccc(/C=C2\C=C(c3ccccc3)OC2=O)cc1` returned an emission maximum of 494 nm.
As to `CC(C)(C)c1ccc(-c2c(-c3cccc(-n4c5ccccc5c5ccccc54)c3)c(C#N)c(-c3cccc(-n4c5ccccc5c5ccccc54)c3)c(-c3ccc(C(C)(C)C)cc3)c2-c2ccc(C(C)(C)C)cc2)cc1`, under “in C1CCOC1”, the emission maximum is recorded as 412 nm.
`CC1(C)C(/C=C/C=C/C=C/C=C2/N(CCC(=O)O)c3ccc4ccccc4c3C2(C)C)=[N+](CCC(=O)O)c2ccc3ccccc3c21` gave an emission maximum (in CO) of 817 nm.
Where the note is “in C1CCCCC1”, `Cc1cc(C)cc(C)c1` yielded an emission maximum of 294.72 nm.
As for `CC1=CC(C)=[N+]2C1=C(c1c3ccccc3c(-c3ccccc3)c3ccccc13)c1c(C)cc(C)n1[B-]2(F)F`, the emission maximum was 508 nm (in CC#N); 514 nm (in CCCCCC); 512 nm (in CCO); 515 nm (in CN(C)C=O); 519 nm (in Cc1ccccc1); 515 nm (in ClCCl).
`CC(C)(C)c1ccc(C2=c3sc(-c4ccc(C(C)(C)C)cc4)cc3=[N+]3C2=Nc2c(-c4ccc(C(C)(C)C)cc4)c4sc(-c5ccc(C(C)(C)C)cc5)cc4n2[B-]3(F)F)cc1` had an emission maximum (in ClC(Cl)Cl) of 793 nm.
As to `Cc1nnc(-c2ccc(-n3c4ccccc4c4ccccc43)cc2)o1`, the emission maximum reads like this: (in CCO) 440 nm; (in Cc1ccccc1) 372 nm.
For `COC(=O)c1nc2c(N(C)C)nc(N(C)C)nc2n1Cc1ccccc1`, the emission maximum is, setting by setting: (in C1COCCO1) 402 nm; (in CC#N) 415 nm; (in CO) 432 nm; (in ClCCl) 409 nm.
Turning to `Cc1cc(N(C)C)cc(C)c1/C=C/C=C/c1ccc(C#N)cc1`, the emission maximum turned out to be 599 nm (in CC#N), 442 nm (in CCCCCC) and 527 nm (in CCOCC).
In turn, `F[B-]1(F)n2cccc2C(c2ccccc2)=C2C=CC(c3cccc(OC4=[N+]5C(=C(c6ccccc6)c6cc(Br)c(Br)n6[B-]5(F)F)C=C4Br)c3)=[N+]21` returned an emission maximum (in ClC(Cl)Cl) of 568 nm.
Consider `CC(=O)Nc1ccc(/C=C2\OC(=O)c3cc(N)ccc32)cc1`, for which the emission maximum is given as 455.79 nm (in CC#N); 453.31 nm (in CC(C)=O); 482.86 nm (in CC(C)CO); 483.09 nm (in CC(C)O); 484.26 nm (in CCCO); 485.91 nm (in CCO). Further, the emission maximum runs as follows: (in CCOC(C)=O) 443.66 nm; (in CCOCC) 429.92 nm; (in CO) 490.2 nm.
Where the note is “in C1CCOC1”, `F[Si-](F)(c1ccccc1)(c1ccccc1)c1c2ccccc2cc2ccccc12` came in with an emission maximum of 399 nm.
The compound `COc1c(C(C)=O)c(=O)oc2cc(N(C)C)ccc12` had an emission maximum (in ClCCl) of 419 nm.
Regarding `CCCCCCc1ccsc1-c1ccc(-c2sc(C(=O)O)cc2CCCCCC)s1`, the emission maximum was 468 nm (in CC(C)=O); 458 nm (in CCCCCC); 451 nm (in CCO); 451 nm (in CO); 479 nm (in ClCCl); 490 nm (in O).
Turning to `CN(C)c1ccc(-c2nc3cccnc3[nH]2)cc1`, the emission maximum turned out to be 359 nm (in C1CCCCC1) and 408 nm (in CC#N).
`Brc1cnc(-c2ccc(N(c3ccccc3)c3ccccc3)cc2)s1` gave an emission maximum (in CO) of 493 nm.
Regarding `F[B-]1(F)n2c(c3cc4ccccc4cc3c2-c2ccccc2)C=C2c3cc4ccccc4cc3C(c3ccccc3)=[N+]21`, the emission maximum by setting is: (in C1CCOC1) 782 nm; (in CN(C)C=O) 788 nm; (in ClCCl) 785 nm; (in c1ccccc1) 785 nm.
For `CC1=CC(C)=[N+]2C1=C(c1ccccc1)c1c(C)cc(/C=C/c3ccc(N(C)C)cc3)n1[B-]2(F)F`, the emission maximum (in CCOCC) is given as 638 nm.
With `CC1(C)CC(NCc2ccc3ccc4cccc5ccc2c3c45)CC(C)(C)N1[O]`, the emission maximum (in C1CCCCC1) is reported as 375 nm, the emission maximum (in CC#N) was 376 nm, the emission maximum (in CO) is recorded as 375 nm and the emission maximum (in ClC(Cl)Cl) stood at 376 nm.
Take `c1ccc(-c2nc(-c3ccc(-n4c5ccccc5c5ccc6c(c7ccccc7n6-c6ccccc6)c54)cc3)c3sc4ccccc4c3n2)cc1`: the emission maximum (in Cc1ccccc1) was 465.01 nm.
As for `Cc1nc2cccc(-c3nc4ccccc4s3)c2c(=O)[nH]1`, where the note is “in CN(C)C=O”, the emission maximum is recorded as 416 nm.
